Experimental data published in patent US7119090B2, “Pyrrole substituted 2-indolinone protein kinase inhibitors” (Sugen, Inc., priority 1998, dated 2006).

Key:
C6 glioma tumors = C6 glioma tumors subcutaneously implanted in mice, oral administration; format: in vivo; settings: 200 mg/kg/day, day 18 post-implantation, subcutaneous C6 tumors in BALB/c nu/nu mice
Method: The following protocol can be used to perform xenograft experiments:
Female athymic mice (BALB/c, nu/nu) are obtained from Simonsen Laboratories (Gilroy, Calif.). All animals are maintained under clean-room conditions in Micro-isolator cages with Alpha-dri bedding. They receive sterile rodent chow and water ad libitum.
Cell lines are grown in appropriate medium (for example, MEM, DMEM, Ham's F10, or Ham's F12 plus 5%-10% fetal bovine serum (FBS) and 2 mM glutamine (GLN)). All cell culture media, glutamine, and fetal bovine serum are purchased from Gibco Life Technologies (Grand Island, N.Y.) unless otherwise specified. All cells are grown in a humid atmosphere of 90-95% air and 5-10% CO2 at 37° C. All cell lines are routinely subcultured twice a week and are negative for mycoplasma as determined by the Mycotect method (Gibco).
Cells are harvested at or near confluency with 0.05% Trypsin-EDTA and pelleted at 450 x g for 10 min. […] Tumor growth is measured over 3 to 6 weeks using venier calipers. Tumor volumes are calculated as a product of length×width×height unless otherwise indicated. P values are calculated using the Students t-test. […]
The compounds also maintain excellent activity when tested in vivo. […] Tumor growth was measured using vernier calipers and tumor volumes were calculated as the product of length×width×height. […]

[1] = Potency in vitro (data not shown)
HUV-EC-C cells (VEGF) = test: HUV-EC-C assay, VEGF-stimulated 3H-thymidine incorporation (HUVEC-VEGF); format: cell-based; settings: Homo sapiens; Table 1
Method: (§1) The following protocol may also be used to measure a compound's activity against PDGF-R, FGF-R, VEGF, aFGF or Flk-1/KDR, all of which are naturally expressed by HUV-EC cells.
(§2) 1. […] After cells have detached from the flask, add an equal volume of assay medium and transfer to a 50 ml sterile centrifuge tube (Fisher Scientific, catalogue no. 05-539-6).
(§3) 2. Wash the cells with about 35 ml assay medium in the 50 ml sterile centrifuge tube by adding the assay medium, centrifuge for 10 minutes at approximately 200x g, aspirate the supernatant, and resuspend with 35 ml D-PBS. Repeat the wash two more times with D-PBS, resuspend the cells in about 1 ml assay medium/is cm^2 of tissue culture flask. Assay medium consists of F12K medium (Gibco BRL, catalogue no. 21127-014) and 0.5% heat-inactivated fetal bovine serum. Count the cells with a Coulter Counter® (Coulter Electronics, Inc.) and add assay medium to the cells to obtain a concentration of 0.8-1.0×10^5 cells/ml.
(§4) 3. Add cells to 96-well flat-bottom plates at 100 μl/well or 0.8-1.0×10^4 cells/well, incubate −24h at 37° C., 5% CO2.
(§5) 1. Make up two-fold test compound titrations in separate 96-well plates, generally 50 μM on down to 0 μM. Use the same assay medium as mentioned in day 0, step 2 above. Titrations are made by adding […] of test compound at 200 μM (4X the final well concentration) to the top well of a particular plate column. Since the stock test compound is usually 20 mM in DMSO, the 200 μM drug concentration contains 2% DMSO.
(§6) A diluent made up to 2% DMSO in assay medium (F12K+0.5% fetal bovine serum) is used as diluent for the test compound titrations in order to dilute the test compound but keep the DMSO concentration constant. Add this diluent to the remaining wells in the column at 60 μl/well. Take 60 μl from the 120 μl of 200 μM test compound dilution in the top well of the column and mix with the 60 μl in the second well of the column. Take 60 μl from this well and mix with the 60 μl in the third well of the column, and so on until two-fold titrations are completed. When the next-to-the-last well is mixed, take 60 μl of the 120 μl in this well and discard it. Leave the last well with 60 μl of DMSO/media diluent as a non-test compound-containing control. Make 9 columns of titrated test compound, enough for triplicate wells each for: (1) VEGF (obtained from Pepro Tech Inc., catalogue no. 100-200, (2) endothelial cell growth factor (ECGF) (also known as acidic fibroblast growth factor, or aFGF) (obtained from Boehringer Mannheim Biochemica, catalogue no. 1439 600), or, (3) human PDGF B/B (1276-956, Boehringer Mannheim, Germany) and assay media control. ECGF comes as a preparation with sodium heparin.
(§7) 2. Transfer 50 μl/well of the test compound dilutions to the 96-well assay plates containing the 0.8-1.0×10^4 cells/100 μl/well of the HUV-EC-C cells from day 0 and incubate […] at 37° C., 5% CO2.
(§8) 3. In triplicate, add 50 μl well of […] VEGF, 20 ng/ml ECGF, or media control to each test compound condition. As with the test compounds, the growth factor concentrations are 4X the desired final concentration. Use the assay media from day 0 step 2 to make the concentrations of growth factors. Incubate approximately 24 hours at 37° C., 5% CO2. Each well will have 50 μl test compound dilution, 50 μl growth factor or media, and 100 μl cells, which calculates to 200 μl/well total. Thus the 4X concentrations of test compound and growth factors become 1X once everything has been added to the wells.
(§9) 1. Add ^3H-thymidine (Amersham, catalogue no. TRK-686) at 1 μCi/well (10 μl/well of 100 μCi/ml solution made up in RPMI media +10% heat-inactivated fetal bovine serum) and incubate ˜24 h at 37° C., 5% CO2. RPMI is obtained from Gibco BRL, catalogue no. 11875-051.
(§10) 1. Freeze plates overnight at −20° C. […]

HUV-EC-C cells (aFGF) = test: HUV-EC-C assay, aFGF (ECGF)-stimulated 3H-thymidine incorporation (HUVEC-aFGF); format: cell-based; settings: Homo sapiens; Table 1
Method: as §1, §2, §3, §4, §5, §6, §7, §8, §9, §10

PDGFR = target: T1, PDGFR (Homo sapiens, UniProt P09619); test: Inhibition constant (Ki) against PDGFR; format: biochemical; settings: data not shown
T1 construct: expressed in transfected cells; host or cells: NIH 3T3 cells expressing PDGFR-β (lysate, Screening Lab, SUGEN)
T1 sequence (P09619 33-1106): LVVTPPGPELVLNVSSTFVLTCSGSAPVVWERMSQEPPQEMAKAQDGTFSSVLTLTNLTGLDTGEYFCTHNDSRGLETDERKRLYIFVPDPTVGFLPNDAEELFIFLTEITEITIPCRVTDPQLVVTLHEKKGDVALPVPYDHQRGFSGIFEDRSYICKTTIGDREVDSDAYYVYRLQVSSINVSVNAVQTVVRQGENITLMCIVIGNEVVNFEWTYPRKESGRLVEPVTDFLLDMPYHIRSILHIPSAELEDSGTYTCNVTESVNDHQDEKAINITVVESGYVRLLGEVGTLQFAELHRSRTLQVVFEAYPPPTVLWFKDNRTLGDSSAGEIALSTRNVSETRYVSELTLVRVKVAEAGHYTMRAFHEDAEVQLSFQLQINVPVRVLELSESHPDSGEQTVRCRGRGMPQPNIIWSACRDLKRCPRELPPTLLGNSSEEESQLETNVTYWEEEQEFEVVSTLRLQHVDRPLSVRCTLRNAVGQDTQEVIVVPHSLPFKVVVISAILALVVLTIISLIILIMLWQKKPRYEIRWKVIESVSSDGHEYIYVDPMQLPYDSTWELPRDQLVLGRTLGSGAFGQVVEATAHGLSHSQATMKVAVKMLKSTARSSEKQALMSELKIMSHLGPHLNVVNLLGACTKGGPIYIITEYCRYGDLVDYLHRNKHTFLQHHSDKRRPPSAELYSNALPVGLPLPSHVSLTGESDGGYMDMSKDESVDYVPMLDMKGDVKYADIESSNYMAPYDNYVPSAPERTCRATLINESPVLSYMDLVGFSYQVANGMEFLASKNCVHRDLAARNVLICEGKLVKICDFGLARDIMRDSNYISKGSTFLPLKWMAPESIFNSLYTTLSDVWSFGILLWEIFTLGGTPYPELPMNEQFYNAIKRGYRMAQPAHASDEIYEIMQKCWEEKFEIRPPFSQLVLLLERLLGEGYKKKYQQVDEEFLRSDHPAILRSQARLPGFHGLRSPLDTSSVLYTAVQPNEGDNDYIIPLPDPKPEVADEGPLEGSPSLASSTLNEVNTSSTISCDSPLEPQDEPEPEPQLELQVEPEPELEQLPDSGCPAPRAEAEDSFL

For O=C(O)CCc1c(/C=C2\C(=O)Nc3ccc(Br)cc32)[nH]c2c1CCCC2 [Compound 65], the “inhibition of tumor growth” value (C6 glioma tumors) was “approximately 65%” and the “potency in vitro compared to compound 5” value [1] was “almost an order of magnitude greater potency in vitro”.

For CC1C(CCC(=O)O)=CNC1/C=C1\C(=O)Nc2ccccc21 (stereo not drawn) [Compound 71], the “inhibition of tumor growth” value (C6 glioma tumors) was 51%.

Cc1ccc2c(c1)/C(=C/c1[nH]c(C)c(CCC(=O)O)c1C)C(=O)N2 [Example 22, 3-[2,4-Dimethyl-5-(5-methyl-2-oxo-1,2-dihydroindol-3-ylidenemethyl)-1H-pyrrol-3-yl]-propionic acid] gave an IC50 (HUV-EC-C cells (VEGF)) of 0.13 µM and an IC50 (HUV-EC-C cells (aFGF)) of 15.8 µM.

For Cc1[nH]c(/C=C2\C(=O)Nc3ccccc32)c(C)c1CCC(=O)O [Example 5, 3-[2,4-Dimethyl-5-(2-oxo-1,2-dihydroindol-3-ylidenemethyl)-1H-pyrrol-3-yl]-propionic acid], the “Ki (inhibition constant) against PDGFR, compared to compound 70” value (PDGFR) was “significantly smaller”.
